ED50 data for two compounds are collected here from patent US6995184B2, “3-arylindole derivatives and their use as CB2 receptor agonists” (Sanofi-Aventis, priority 2000, dated 2006).

For this experiment, the target named is T1, cannabinoid receptors present in the mouse spleen (Mus musculus, UniProt P47936).
T1 construct: from tissue; host or cells: mouse spleen
Description: In vivo affinity for cannabinoid receptors in mouse spleen after oral administration. On the procedure: The tests were carried out according to the experimental conditions described by Rinaldi-Carmona et al., J. Pharmacol. Exp. Ther., 1998, 284, 644–650.
Thus, the compounds of Examples 7, 44, 46, 72, 89, 106, 120, 130 and 132, for which the ratio of the affinity for the CB1 receptors to that for the CB2 receptors is between 400 and 4 000, are active orally with an ED50 of between 0.2 mg/kg and 20 mg/kg.

T1 sequence (P47936 whole entry): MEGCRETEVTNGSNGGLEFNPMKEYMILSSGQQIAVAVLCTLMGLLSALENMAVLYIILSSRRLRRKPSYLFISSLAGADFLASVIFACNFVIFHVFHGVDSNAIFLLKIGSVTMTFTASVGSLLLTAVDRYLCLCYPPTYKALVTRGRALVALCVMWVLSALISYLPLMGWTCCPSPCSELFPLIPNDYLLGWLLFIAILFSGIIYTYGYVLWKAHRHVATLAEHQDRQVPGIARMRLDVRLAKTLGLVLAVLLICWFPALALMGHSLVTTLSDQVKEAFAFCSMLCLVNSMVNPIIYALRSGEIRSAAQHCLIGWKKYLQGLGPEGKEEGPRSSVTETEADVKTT

Usually ED50 stands for the dose that gives a 50% effect, or the effect in half of the subjects. High values mean weaker potency, low ones greater potency. In turn, `Cc1c(C(=O)c2cccc(Cl)c2Cl)c2cccc(Br)c2n1CCCS(C)(=O)=O` [Example 7, (7-Bromo-2-methyl-1-(3-(methylsulphonyl)propyl)-1H-indol-3-yl)(2,3-dichlorophenyl)methanone] returned a 50% effective dose (ED50) of 0.2 to 20 mg/kg.
For `Cc1c(C(=O)c2cccc(C(F)(F)F)c2F)c2ccc(Cl)c(Cl)c2n1CCCNS(C)(=O)=O` [Example 72, N-(3-(6,7-Dichloro-3-[2-fluoro-3-(trifluoromethyl)benzoyl]-2-methyl-1H-indol-1-yl)propyl)methanesulphonamide] the value was 0.2 to 20 mg/kg.
